Results on twelve compounds are retold here after US20110052678A1, “METHOD FOR TREATING AGE RELATED MACULAR DEGENERATION” (priority 2010, published 2011).

Series [1] deals with patients. In words: Clinical use of MSM ophthalmic drops by the inventor. In kind it is in vivo, human.
Text: We have used aqueous solutions of MSM filtered, sterilized, and mixed with insulin.
For series [2] the following is noted: water; cited from earlier work.
The conditions of series [3]: local application incl. conjunctival sac, scalp, gums, wounds. From the text: The present invention formulations contain only 0.10 to 1.00 IU per drop which the dosage can be increased or the dosage can be decreased depending upon the disease states.
The test system of another series is oxidized cells. Particulars: H2O2 induced, insulin pretreatment; cited from earlier work.
The test system of series [4] is individuals with macular edema. As to conditions: fluorescein angiography; cited from earlier work.
The conditions of series [5]: in vivo; cited from earlier work.
Series [6] has as its system patients. As to conditions: supplementation; cited from earlier work.
For series [7] the following is noted: after oral intake; cited from earlier work.
Series [8] has as its system dry mouth and dry eyes conditions. Description: Clinical use of ADT orally and as eye drops. It counts as in vivo. As to conditions: 25 mg orally and nanograms concentration in eye drops. On the procedure:
We have used ADT 25 mg orally and ADT in nanograms concentration in liquid ophthalmic eye drops with success in these conditions, especially, those on chemotherapy, menopausal women, and chronic smokers with dry mouth and dry eyes conditions. There is secretory dysfunction associated with RPE and Muller cells which are needed for proper functioning of the photoreceptors by removing ROS. This can be one of the important non toxic oral and eye drops for the treatment of age related macular degeneration (Ben-Mandi M H, Gozin A, Driss F, Andrieu V, Christen M O, Pasquier C. Anethole dithiolethione regulates oxidant-induced tyrosine kinase activation in endothelial cells. Antioxid Redox Signal. 2000 Winter, 2 (4):789-99). […] (Han S F, Yao T T, Zhang X X, Gan L, Zhu C, Yu H Z, Gan Y. Int J Pharm. Lipid-based formulations to enhance oral bioavailability of the poorly water-soluble drug anetholtrithione: effects of lipid composition and formulation. 2009 Sep. 8; 379(1):18-24. Epub 2009 Jun. 7.).

In series [9] the test system is patients with neovascular ARMS. Particulars: intravitreous 1.25 mg injections; cited from earlier work.
The test system of the next series is photoreceptor cell. Particulars: in vitro model; cited from earlier work.
For series [10] the following is noted: cited from earlier work.

Take `CS(C)(=O)=O` [MSM, Methylsulfonylmethane]: the treatment outcome in the series on patients [1] (aqueous MSM mixed with insulin as eye drops, ARMD, retinitis pigmentosa, cataract, dry eye, glaucoma) is listed as “good results”. Further, in the series with patients [1] (ophthalmic drops, aged, Lyme disease and cancer patients), the patient-reported vision result was “their vision had improved”. Moreover, the solubility entry in [2] is listed as “soluble in water”. For insulin, in series [3], the “change of blood sugar levels (hypoglycemic effect)” value is “did not change the blood sugar levels”. Further, the lipid peroxidation entry in the series on oxidized cells is listed as “significantly inhibited”.

In the case of `CC(=O)Nc1nnc(S(N)(=O)=O)s1` [acetazolamide], the “leakage of dye into the photoreceptor area” value in series [4] was “inhibited”.

For Insulin glargine, the “Peak action in hours” value in [5] is 8 to 16 h. With Vitamin A, in the series on patients [6], the postponement of blindness was approximately 10 years. Also, the “time to peak blood concentration” value in series [7] is reported as “one”. Take Insulin detemir: the “Peak action in hours” value in series [5] is 6 to 8 h. Take anethole dithiolethione [ADT]: the treatment outcome in [8] is on record as “success”. For “Regular (soluble): short-acting regular (soluble) insulin”, the “Peak action in hours” value in series [5] is 2 to 3 h.

With bevacizumab, in series [9], the “patients improved 10 or more letters” value is “more than 45%”.

Consider brimonidine tartrate, for which, in the series on photoreceptor cell, the photoreceptor cell degeneration result is on record as “prevent photoreceptor cell degeneration”. For “NPH (isophane): intermediate-acting NPH (isophane) insulin”, in [5], the “Peak action in hours” value is 6 to 10 h. For the compound hyaluronic acid, the pH in series [10] (0.1% solution) is 6.0-7.5. For the same compound, in series [10] (hydrated), the “water contained relative to own weight” value is “up to 1,000 fold”.
